Assay results as given in patent US7259154B2, “Pyrrolopyrimidines” (Aventis Pharmaceuticals Inc., priority 2001, dated 2007).

SMILES: COc1ccc2c(c1)c(-c1cc3c(OC)ncnc3[nH]1)cn2C [Example 10, 4-Methoxy-6-(5-methoxy-1-methyl-1H-indol-3-yl)-7H-pyrrolo[2,3-d]pyrimidine]
- melting point: 184 °C

SMILES: COc1ccc2[nH]cc(-c3cc4c(OC)ncnc4[nH]3)c2c1 [Example 11, 4-Methoxy-6-(5-methoxy-1H-indol-3-yl)-7H-pyrrolo[2,3-d]pyrimidine]
- melting point: > 260 °C
